Results as given in the supplement of paper PMC13386468.

Experiments:
Assay in all cases: IC50 for competition of protein binding to Kinobeads
Details in all cases: assay detail: Kinobeads competition in P. falciparum blood-stage lysate
UniProt Q8IJW4 = target: UniProt Q8IJW4
UniProt C6KTC7 = target: UniProt C6KTC7
UniProt Q8IAU0 = target: UniProt Q8IAU0
UniProt Q8II73 = target: UniProt Q8II73
UniProt Q8ILG6 = target: UniProt Q8ILG6
UniProt Q8IJA4 = target: UniProt Q8IJA4
UniProt O77385 = target: UniProt O77385
UniProt Q8IDF6 = target: UniProt Q8IDF6
UniProt Q8II92 = target: UniProt Q8II92
UniProt Q8III3 = target: UniProt Q8III3
UniProt Q8I5T4 = target: UniProt Q8I5T4
UniProt Q7K6A0 = target: UniProt Q7K6A0
UniProt O97282 = target: UniProt O97282
UniProt Q8IM10 = target: UniProt Q8IM10
UniProt Q8IIS9 = target: UniProt Q8IIS9
UniProt Q8I2Q0 = target: UniProt Q8I2Q0
UniProt Q8IDF9 = target: UniProt Q8IDF9
UniProt Q8IDG2 = target: UniProt Q8IDG2
UniProt Q8I3X4 = target: UniProt Q8I3X4
UniProt Q8IK92 = target: UniProt Q8IK92
UniProt Q8I348 = target: UniProt Q8I348
UniProt Q8I0V2 = target: UniProt Q8I0V2
UniProt Q8IDW4 = target: UniProt Q8IDW4
UniProt Q9TY95 = target: UniProt Q9TY95
UniProt C6KT25 = target: UniProt C6KT25
UniProt Q8IKB0 = target: UniProt Q8IKB0
UniProt Q8IKK7 = target: UniProt Q8IKK7
UniProt Q8I3J0 = target: UniProt Q8I3J0
UniProt Q8IJA9 = target: UniProt Q8IJA9
UniProt Q8I2I2 = target: UniProt Q8I2I2
UniProt Q8IEF0 = target: UniProt Q8IEF0
UniProt Q8ID72 = target: UniProt Q8ID72
UniProt Q8IM38 = target: UniProt Q8IM38
UniProt Q8I5E2 = target: UniProt Q8I5E2
UniProt Q8IIL5 = target: UniProt Q8IIL5
UniProt Q8IL80 = target: UniProt Q8IL80
UniProt Q8IFN9 = target: UniProt Q8IFN9
UniProt Q8I5S4 = target: UniProt Q8I5S4
UniProt Q8I2P8 = target: UniProt Q8I2P8
UniProt C0H4Y6 = target: UniProt C0H4Y6
UniProt Q8IDM2 = target: UniProt Q8IDM2
UniProt Q8IAV6 = target: UniProt Q8IAV6
UniProt Q8IAM0 = target: UniProt Q8IAM0
UniProt Q8IE20 = target: UniProt Q8IE20
UniProt Q8I1P3 = target: UniProt Q8I1P3
UniProt Q8II72 = target: UniProt Q8II72
UniProt C6KSY6 = target: UniProt C6KSY6
UniProt Q8IB73 = target: UniProt Q8IB73
UniProt O77310 = target: UniProt O77310
UniProt Q8IIC9 = target: UniProt Q8IIC9
UniProt C0H4U4 = target: UniProt C0H4U4
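Also: native unpurified kinases from lysate captured on beads bearing immobilized kinase inhibitors, with bead-bound kinases quantified by mass spectrometry across compound doses.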

Sequence of UniProt Q8I3X4 (Q8I3X4 whole entry): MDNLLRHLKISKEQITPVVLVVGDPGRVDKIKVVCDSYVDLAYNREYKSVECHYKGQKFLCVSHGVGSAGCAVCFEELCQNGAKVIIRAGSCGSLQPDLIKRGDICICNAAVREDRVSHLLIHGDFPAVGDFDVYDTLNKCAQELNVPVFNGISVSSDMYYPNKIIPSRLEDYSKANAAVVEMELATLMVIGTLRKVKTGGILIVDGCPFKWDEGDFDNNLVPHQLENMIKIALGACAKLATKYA
Sequence of UniProt Q8IDF6 (Q8IDF6 whole entry): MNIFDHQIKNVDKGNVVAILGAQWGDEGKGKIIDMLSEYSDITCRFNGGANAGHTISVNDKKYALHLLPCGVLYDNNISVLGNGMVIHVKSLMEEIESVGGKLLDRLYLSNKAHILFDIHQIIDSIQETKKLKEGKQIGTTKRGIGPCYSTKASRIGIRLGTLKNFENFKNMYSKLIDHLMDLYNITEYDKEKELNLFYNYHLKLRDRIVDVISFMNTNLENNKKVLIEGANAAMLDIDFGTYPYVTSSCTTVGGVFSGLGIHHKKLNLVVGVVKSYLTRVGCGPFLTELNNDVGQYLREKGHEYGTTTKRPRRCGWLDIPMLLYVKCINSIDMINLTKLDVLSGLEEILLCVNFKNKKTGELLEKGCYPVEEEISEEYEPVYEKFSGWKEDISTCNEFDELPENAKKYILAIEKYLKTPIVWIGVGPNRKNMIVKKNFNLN
Sequence of UniProt Q8IJA9 (Q8IJA9 whole entry): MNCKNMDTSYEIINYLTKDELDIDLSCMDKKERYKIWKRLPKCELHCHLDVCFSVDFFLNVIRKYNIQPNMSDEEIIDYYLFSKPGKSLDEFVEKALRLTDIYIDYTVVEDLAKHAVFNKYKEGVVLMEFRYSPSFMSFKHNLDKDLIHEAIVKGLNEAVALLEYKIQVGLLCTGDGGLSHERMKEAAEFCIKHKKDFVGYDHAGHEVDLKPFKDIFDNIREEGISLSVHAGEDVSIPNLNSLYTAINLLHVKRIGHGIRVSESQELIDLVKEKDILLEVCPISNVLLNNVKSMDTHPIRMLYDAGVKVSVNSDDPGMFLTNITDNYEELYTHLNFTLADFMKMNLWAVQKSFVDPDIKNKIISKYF
Sequence of UniProt Q9TY95 (Q9TY95 whole entry): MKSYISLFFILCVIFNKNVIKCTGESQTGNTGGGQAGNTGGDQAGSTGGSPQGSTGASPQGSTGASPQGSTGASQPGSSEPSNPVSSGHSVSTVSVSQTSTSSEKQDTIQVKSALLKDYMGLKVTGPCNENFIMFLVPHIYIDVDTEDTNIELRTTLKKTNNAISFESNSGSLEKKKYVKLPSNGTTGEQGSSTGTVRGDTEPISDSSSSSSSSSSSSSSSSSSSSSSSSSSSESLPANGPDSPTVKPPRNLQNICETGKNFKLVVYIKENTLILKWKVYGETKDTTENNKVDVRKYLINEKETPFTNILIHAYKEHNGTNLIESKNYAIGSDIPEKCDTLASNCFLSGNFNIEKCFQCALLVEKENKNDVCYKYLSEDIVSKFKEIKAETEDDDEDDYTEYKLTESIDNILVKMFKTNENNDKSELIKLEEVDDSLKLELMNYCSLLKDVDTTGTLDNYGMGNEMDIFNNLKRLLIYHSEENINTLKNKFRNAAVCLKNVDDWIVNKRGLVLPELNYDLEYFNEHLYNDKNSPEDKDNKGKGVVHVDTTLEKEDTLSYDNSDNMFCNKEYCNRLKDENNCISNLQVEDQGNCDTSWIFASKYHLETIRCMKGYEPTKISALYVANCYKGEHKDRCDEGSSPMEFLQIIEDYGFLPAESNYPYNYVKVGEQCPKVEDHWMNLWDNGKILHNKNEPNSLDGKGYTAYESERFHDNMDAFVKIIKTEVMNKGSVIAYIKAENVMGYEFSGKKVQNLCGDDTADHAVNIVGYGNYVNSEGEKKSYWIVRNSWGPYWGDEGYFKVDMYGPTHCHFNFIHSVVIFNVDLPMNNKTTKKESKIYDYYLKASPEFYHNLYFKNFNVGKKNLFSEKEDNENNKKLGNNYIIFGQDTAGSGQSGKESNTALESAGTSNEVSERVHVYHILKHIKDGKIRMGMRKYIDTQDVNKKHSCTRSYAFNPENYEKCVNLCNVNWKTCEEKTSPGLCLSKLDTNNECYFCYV
Sequence of UniProt O77310 (O77310 whole entry): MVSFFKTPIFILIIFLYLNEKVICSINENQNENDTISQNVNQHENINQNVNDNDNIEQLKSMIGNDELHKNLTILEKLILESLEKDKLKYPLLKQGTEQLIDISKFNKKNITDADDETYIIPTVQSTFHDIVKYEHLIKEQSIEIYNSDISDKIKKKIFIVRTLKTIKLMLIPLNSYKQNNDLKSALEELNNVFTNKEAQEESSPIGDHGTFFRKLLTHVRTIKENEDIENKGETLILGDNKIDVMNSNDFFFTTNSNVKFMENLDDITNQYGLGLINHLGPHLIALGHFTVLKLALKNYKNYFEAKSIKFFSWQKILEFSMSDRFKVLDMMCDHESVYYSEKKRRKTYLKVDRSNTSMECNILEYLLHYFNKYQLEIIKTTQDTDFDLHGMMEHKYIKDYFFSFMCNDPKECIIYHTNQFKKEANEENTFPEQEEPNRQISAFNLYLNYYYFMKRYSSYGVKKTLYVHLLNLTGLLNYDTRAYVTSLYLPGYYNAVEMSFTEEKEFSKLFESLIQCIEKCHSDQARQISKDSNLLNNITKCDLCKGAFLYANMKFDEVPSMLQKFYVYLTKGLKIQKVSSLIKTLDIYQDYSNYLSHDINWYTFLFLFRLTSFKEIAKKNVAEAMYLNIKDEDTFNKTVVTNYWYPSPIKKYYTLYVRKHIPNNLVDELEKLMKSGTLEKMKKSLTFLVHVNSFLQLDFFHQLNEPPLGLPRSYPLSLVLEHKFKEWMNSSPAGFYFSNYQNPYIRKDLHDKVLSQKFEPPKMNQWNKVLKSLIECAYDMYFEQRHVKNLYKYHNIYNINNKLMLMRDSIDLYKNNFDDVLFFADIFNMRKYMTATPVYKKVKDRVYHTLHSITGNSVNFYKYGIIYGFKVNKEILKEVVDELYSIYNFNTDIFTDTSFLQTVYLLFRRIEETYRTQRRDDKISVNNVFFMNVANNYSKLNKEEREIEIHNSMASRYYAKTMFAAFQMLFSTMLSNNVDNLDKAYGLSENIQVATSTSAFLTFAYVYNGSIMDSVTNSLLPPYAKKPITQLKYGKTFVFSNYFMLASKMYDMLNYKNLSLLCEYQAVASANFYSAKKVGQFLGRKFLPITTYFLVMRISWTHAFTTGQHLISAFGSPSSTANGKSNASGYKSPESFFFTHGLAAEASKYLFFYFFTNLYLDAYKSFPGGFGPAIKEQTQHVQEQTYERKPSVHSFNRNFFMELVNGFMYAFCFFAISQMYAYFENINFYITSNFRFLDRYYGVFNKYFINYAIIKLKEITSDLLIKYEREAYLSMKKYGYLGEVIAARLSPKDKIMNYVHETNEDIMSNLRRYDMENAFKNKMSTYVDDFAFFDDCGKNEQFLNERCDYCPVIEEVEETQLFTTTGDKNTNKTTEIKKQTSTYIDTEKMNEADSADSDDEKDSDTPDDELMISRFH

SMILES: O=c1[nH]c2ccc(Cl)cc2c(NC2CN3CCC2CC3)c1-c1nc2ccccc2[nH]1 (stereo unspecified) [CHIR-124]
- IC50 (UniProt Q8IJW4): > 20 µM
- IC50 (UniProt C6KTC7): > 20 µM
- IC50 (UniProt Q8IAU0): > 20 µM
- IC50 (UniProt Q8II73): > 20 µM
- IC50 (UniProt Q8ILG6): > 20 µM
- IC50 (UniProt Q8IJA4): > 20 µM
- IC50 (UniProt O77385): > 20 µM
- IC50 (UniProt Q8IDF6): > 20 µM
- IC50 (UniProt Q8II92): > 20 µM
- IC50 (UniProt Q8III3): > 20 µM
- IC50 (UniProt Q8I5T4): > 20 µM
- IC50 (UniProt Q7K6A0): 0.865 µM
- IC50 (UniProt O97282): > 20 µM
- IC50 (UniProt Q8IM10): > 20 µM
- IC50 (UniProt Q8IIS9): > 20 µM
- IC50 (UniProt Q8I2Q0): > 20 µM
- IC50 (UniProt Q8IDF9): > 20 µM
- IC50 (UniProt Q8IDG2): > 20 µM
- IC50 (UniProt Q8I3X4): > 20 µM
- IC50 (UniProt Q8IK92): > 20 µM
- IC50 (UniProt Q8I348): > 20 µM
- IC50 (UniProt Q8I0V2): > 20 µM
- IC50 (UniProt Q8IDW4): > 20 µM
- IC50 (UniProt Q9TY95): > 20 µM
- IC50 (UniProt C6KT25): > 20 µM
- IC50 (UniProt Q8IKB0): > 20 µM
- IC50 (UniProt Q8IKK7): > 20 µM
- IC50 (UniProt Q8I3J0): > 20 µM
- IC50 (UniProt Q8IJA9): > 20 µM
- IC50 (UniProt Q8I2I2): > 20 µM
- IC50 (UniProt Q8IEF0): > 20 µM
- IC50 (UniProt Q8ID72): > 20 µM
- IC50 (UniProt Q8IM38): > 20 µM
- IC50 (UniProt Q8I5E2): > 20 µM
- IC50 (UniProt Q8IIL5): > 20 µM
- IC50 (UniProt Q8IL80): > 20 µM
- IC50 (UniProt Q8IFN9): > 20 µM
- IC50 (UniProt Q8I5S4): > 20 µM
- IC50 (UniProt Q8I2P8): > 20 µM
- IC50 (UniProt C0H4Y6): > 20 µM
- IC50 (UniProt Q8IDM2): > 20 µM
- IC50 (UniProt Q8IAV6): > 20 µM
- IC50 (UniProt Q8IAM0): > 20 µM
- IC50 (UniProt Q8IE20): > 20 µM
- IC50 (UniProt Q8I1P3): > 20 µM
- IC50 (UniProt Q8II72): > 20 µM
- IC50 (UniProt C6KSY6): > 20 µM
- IC50 (UniProt Q8IB73): > 20 µM
- IC50 (UniProt O77310): > 20 µM
- IC50 (UniProt Q8IIC9): > 20 µM
- IC50 (UniProt C0H4U4): > 20 µM
